Reference: ChEMBL document CHEMBL3603778, “Exploration on natural product anibamine side chain modification toward development of novel CCR5 antagonists and potential anti-prostate cancer agents” (Bioorg Med Chem Lett, 2015)

Tests used:
[1] = Antiproliferative activity against human M12 cells after 72 hrs by WST1 assay; type: functional, cell-based; conditions: M12, 72 h
[2] = target: C-C chemokine receptor type 5 (Homo sapiens, UniProt P51681); assay: Antagonist activity at CCR5 (unknown origin) expressed in human MOLT4 cells assessed as inhibition of CCL5-induced calcium mobilization after 1 hr; type: functional, cell-based, MOLT-4
PC-3 = assay: Antiproliferative activity against human PC3 cells after 72 hrs by WST1 assay; type: functional, cell-based; conditions: PC-3, 72 h
[3] = Cytotoxicity against mouse NIH/3T3 cells after 72 hrs by WST1 assay; type: cell-based, NIH3T3; conditions: read-out: TC50

C-C chemokine receptor type 5, sequence (P51681 whole entry): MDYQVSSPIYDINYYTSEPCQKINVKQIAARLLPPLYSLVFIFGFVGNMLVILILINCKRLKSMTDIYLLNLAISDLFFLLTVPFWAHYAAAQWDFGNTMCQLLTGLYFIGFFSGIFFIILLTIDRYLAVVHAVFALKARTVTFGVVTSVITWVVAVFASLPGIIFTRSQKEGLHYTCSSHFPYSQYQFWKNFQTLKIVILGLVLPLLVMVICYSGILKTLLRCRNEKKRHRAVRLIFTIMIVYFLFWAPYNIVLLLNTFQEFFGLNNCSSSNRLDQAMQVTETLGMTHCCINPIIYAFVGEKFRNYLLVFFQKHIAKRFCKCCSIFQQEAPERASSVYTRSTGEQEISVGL

Cc1c(CNC(=O)c2ccc3ccccc3c2)c(C)[n+]2c(c1CNC(=O)c1ccc3ccccc3c1)CCC2
IC50 [1]: 192 µM
IC50 [2]: 12.7 µM
IC50 (PC-3): 101 µM

Cc1c(CNC(=O)c2ccc(-c3ccccc3)cc2)c(C)[n+]2c(c1CNC(=O)c1ccc(-c3ccccc3)cc1)CCC2
IC50 [1]: 49.1 µM
CC50 at 72 h [3]: 228 µM
IC50 [2]: 17.3 µM
IC50 (PC-3): 47.1 µM

Cc1c(CNC(=O)c2ccc(C3CCCCC3)cc2)c(C)[n+]2c(c1CNC(=O)c1ccc(C3CCCCC3)cc1)CCC2
IC50 [1]: 20.9 µM
CC50 at 72 h [3]: 43.4 µM
IC50 [2]: 12.9 µM
IC50 (PC-3): 55.3 µM

Cc1c(CNC(=O)c2ccc(C(C)(C)C)cc2)c(C)[n+]2c(c1CNC(=O)c1ccc(C(C)(C)C)cc1)CCC2
IC50 [1]: 59.9 µM
CC50 at 72 h [3]: 83.2 µM
IC50 [2]: 30.1 µM
IC50 (PC-3): 31 µM

Cc1c(CNC(=O)c2ccc(C(C)C)cc2)c(C)[n+]2c(c1CNC(=O)c1ccc(C(C)C)cc1)CCC2
IC50 [1]: 120 µM
CC50 at 72 h [3]: 270 µM
IC50 [2]: 26.8 µM
IC50 (PC-3): 168 µM

Cc1c(CNC(=O)c2ccc(Br)cc2)c(C)[n+]2c(c1CNC(=O)c1ccc(Br)cc1)CCC2
IC50 [1]: 92 µM
CC50 at 72 h [3]: 182 µM
IC50 [2]: 38.5 µM
IC50 (PC-3): 147 µM

Cc1c(CNC(=O)c2ccc(Cl)cc2)c(C)[n+]2c(c1CNC(=O)c1ccc(Cl)cc1)CCC2
IC50 [1]: 135 µM
CC50 at 72 h [3]: 263 µM
IC50 [2]: 46.2 µM
IC50 (PC-3): 179 µM

Cc1c(CNC(=O)c2ccc(C(F)(F)F)cc2)c(C)[n+]2c(c1CNC(=O)c1ccc(C(F)(F)F)cc1)CCC2
IC50 [2]: 121 µM

Cc1c(CNC(=O)c2ccc([N+](=O)[O-])cc2)c(C)[n+]2c(c1CNC(=O)c1ccc([N+](=O)[O-])cc1)CCC2
IC50 [1]: 161 µM
IC50 [2]: 67.7 µM
IC50 (PC-3): > 300 µM

Cc1c(CNC(=O)c2ccc(F)cc2)c(C)[n+]2c(c1CNC(=O)c1ccc(F)cc1)CCC2
IC50 [2]: 80.9 µM

Cc1c(CNC(=O)c2ccc(C#N)cc2)c(C)[n+]2c(c1CNC(=O)c1ccc(C#N)cc1)CCC2
IC50 [2]: 101 µM

Cc1c(CNC(=O)c2ccc(N)cc2)c(C)[n+]2c(c1CNC(=O)c1ccc(N)cc1)CCC2
IC50 [2]: 174 µM

CSc1ccc(C(=O)NCc2c(C)c(CNC(=O)c3ccc(SC)cc3)c3[n+](c2C)CCC3)cc1
IC50 [1]: 252 µM
IC50 (PC-3): 102 µM

COc1ccc(C(=O)NCc2c(C)c(CNC(=O)c3ccc(OC)cc3)c3[n+](c2C)CCC3)cc1
IC50 [1]: 127 µM
IC50 [2]: 69 µM
IC50 (PC-3): 154 µM

CCc1ccc(C(=O)NCc2c(C)c(CNC(=O)c3ccc(CC)cc3)c3[n+](c2C)CCC3)cc1
IC50 [1]: 169 µM
IC50 [2]: 23.9 µM
IC50 (PC-3): 162 µM

Cc1ccc(C(=O)NCc2c(C)c(CNC(=O)c3ccc(C)cc3)c3[n+](c2C)CCC3)cc1
IC50 [1]: 185 µM
IC50 [2]: 18.7 µM
IC50 (PC-3): 244 µM

Cc1c(CNC(=O)c2ccccc2)c(C)[n+]2c(c1CNC(=O)c1ccccc1)CCC2
IC50 [1]: 285 µM
CC50 at 72 h [3]: 212 µM
IC50 [2]: 1.35 µM
IC50 (PC-3): 508 µM
